In patent US6737383B1, “Herbicidal oxadiazolidines” (priority 1999, dated 2004):

Assays:
duck salad = experiment: Test B flood test duck salad; format: in vivo, Heteranthera limosa; settings: Pre-emergence
Procedure, shortened: (§1)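 Each value is a visual injury score relative to controls, with 10 meaning complete control and 0 no effect. Evaluation took place twelve to sixteen days after the 2-leaf-stage plants were treated and kept in the greenhouse.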

cocklebur = experiment: Test B pre/postemergence cocklebur; format: in vivo, Xanthium strumarium
Procedure, shortened: (§2)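 Test chemicals in a non-phytotoxic solvent mixture with surfactant were sprayed preemergence onto planted seeds and postemergence onto plants 2 to 18 cm tall (1- to 4-leaf stage). After twelve to sixteen days in a greenhouse, injury was visually rated against untreated controls from 0 (no effect) to 10 (complete control).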

surinam grass = experiment: Test B pre/postemergence surinam grass; format: in vivo, Brachiaria decumbens
Procedure, shortened: as §2

smallflower flatsedge = experiment: Test B flood test smallflower flatsedge; format: in vivo, Cyperus difformis; settings: Pre-emergence
Procedure, shortened: as §1

wheat = experiment: Test B pre/postemergence wheat; format: in vivo, Triticum aestivum
Procedure, shortened: as §2

wild oat = experiment: Test B pre/postemergence wild oat; format: in vivo, Avena fatua
Procedure, shortened: as §2

soybean = experiment: Test B pre/postemergence soybean; format: in vivo, Glycine max
Procedure, shortened: as §2

corn = experiment: Test B pre/postemergence corn; format: in vivo, Zea mays
Procedure, shortened: as §2

sugar beet = experiment: Test B pre/postemergence sugar beet; format: in vivo, Beta vulgaris
Procedure, shortened: as §2

bamyardgrass = experiment: Test B flood test barnyardgrass; format: in vivo, Echinochloa crus-galli; settings: Pre-emergence
Procedure, shortened: as §1

blackgrass = experiment: Test B pre/postemergence blackgrass; format: in vivo, Alopecurus myosuroides
Procedure, shortened: as §2

giant foxtail = experiment: Test B pre/postemergence giant foxtail; format: in vivo, Setaria faberii
Procedure, shortened: as §2

bedstraw = experiment: Test B pre/postemergence bedstraw; format: in vivo, Galium aparine
Procedure, shortened: as §2

rice = experiment: Test B flood test rice; format: in vivo, Oryza sativa; settings: Pre-emergence
Procedure, shortened: as §1

crabgrass = experiment: Test B pre/postemergence crabgrass; format: in vivo, Digitaria sanguinalis
Procedure, shortened: as §2

velvetleaf = experiment: Test B pre/postemergence velvetleaf; format: in vivo, Abutilon theophrasti
Procedure, shortened: as §2

purple nutsedge = experiment: Test B pre/postemergence purple nutsedge; format: in vivo, Cyperus rotundus
Procedure, shortened: as §2

morningglory = experiment: Test B pre/postemergence morningglory; format: in vivo, Ipomoea hederacea
Procedure, shortened: as §2

rape = experiment: Test B pre/postemergence rape; format: in vivo, Brassica napus
Procedure, shortened: as §2

pigweed = experiment: Test B pre/postemergence pigweed; format: in vivo, Amaranthus retroflexus
Procedure, shortened: as §2

[1] = Rate 1000 g/ha, scale 0 to 10 (0 no effect, 10 complete control)
[2] = Rate 125 g/ha, flood test species, scale 0 to 10 where 0 is no effect and 10 is complete control
[3] = Rate 250 g/ha, flood-test species, scale 0 to 10, 0 is no effect, 10 is complete control
[4] = Rate 500 g/ha, flood test species, scale 0 to 10 (0 no effect, 10 complete control)
[5] = Preemergence, Rate 31 g/ha, visual rating, scale 0 to 10 (0 no effect, 10 complete control)
[6] = Preemergence, Rate 62 g/ha, scale of 0 to 10 where 0 is no effect and 10 is complete control
[7] = Preemergence, Rate 250 g/ha, scale of 0 to 10 where 0 is no effect and 10 is complete control
[8] = Rate 31 g/ha, Postemergence, scale 0 to 10
[9] = Rate 62 g/ha, Postemergence, scale of 0 to 10 where 0 is no effect and 10 is complete control
[10] = Rate 125 g/ha, Postemergence, scale 0 to 10
[11] = Rate 125 g/ha, Preemergence, scale of 0 to 10 where 0 is no effect and 10 is complete control

CCOC(=O)C(C)N(C(=O)n1oc(=O)n(-c2c(C)cccc2C)c1=O)c1ccc(F)cc1 (stereo not drawn) [Compound 244]
0: Ducksalad plant response rating (duck salad; [1]) | Ducksalad plant response rating (duck salad; [2]) | Ducksalad plant response rating (duck salad; [3]) | Ducksalad plant response rating (duck salad; [4]) | Cocklebur plant response rating (cocklebur; [5]) | Cocklebur plant response rating (cocklebur; [6]) | Cocklebur plant response rating (cocklebur; [7]) | Cocklebur plant response rating (cocklebur; [8]) | Cocklebur plant response rating (cocklebur; [9]) | Cocklebur plant response rating (cocklebur; [10]) | Cocklebur plant response rating (cocklebur; [11]) | Plant response rating (0 to 10; 0 is no effect, 10 is complete control), Cocklebur (cocklebur; Rate 250 g/ha, Postemergence) | B. signalgrass plant response rating (surinam grass; [5]) | B. signalgrass plant response rating (surinam grass; [6]) | B. signalgrass plant response rating (surinam grass; [7]) | B. signalgrass plant response rating (surinam grass; [8]) | B. signalgrass plant response rating (surinam grass; [9]) | B. signalgrass plant response rating (surinam grass; Rate 125 g/ha, Postemergence, scale 0 (no effect) to 10 (complete control)) | B. signalgrass plant response rating (surinam grass; [11]) | Plant response rating (0 to 10; 0 is no effect, 10 is complete control), B. signalgrass (surinam grass; Rate 250 g/ha, Postemergence) | S. Flatsedge plant response rating (smallflower flatsedge; [1]) | S. Flatsedge plant response rating (smallflower flatsedge; [2]) | S. Flatsedge plant response rating (smallflower flatsedge; [3]) | S. Flatsedge plant response rating (smallflower flatsedge; [4]) | Wheat plant response rating (wheat; [5]) | Wheat plant response rating (wheat; [6]) | Wheat plant response rating (wheat; [7]) | Wheat plant response rating (wheat; [9]) | Wheat plant response rating (wheat; [11]) | Wild oats plant response rating (wild oat; [5]) | Wild oats plant response rating (wild oat; [6]) | Wild oats plant response rating (wild oat; [7]) | Wild oats plant response rating (wild oat; [9]) | Wild oats plant response rating (wild oat; [11]) | Soybean plant response rating (soybean; [5]) | Soybean plant response rating (soybean; [6]) | Soybean plant response rating (soybean; [7]) | Soybean plant response rating (soybean; [9]) | Soybean plant response rating (soybean; [11]) | Corn plant response rating (corn; [5]) | Corn plant response rating (corn; [6]) | Corn plant response rating (corn; [7]) | Corn plant response rating (corn; [8]) | Corn plant response rating (corn; [9]) | Corn plant response rating (corn; [10]) | Corn plant response rating (corn; [11]) | Plant response rating (0 to 10; 0 is no effect, 10 is complete control), Corn (corn; Rate 250 g/ha, Postemergence) | Sugarbeets plant response rating (sugar beet; [5]) | Sugarbeets plant response rating (sugar beet; [6]) | Sugarbeets plant response rating (sugar beet; [7]) | Sugarbeets plant response rating (sugar beet; [9]) | Sugarbeets plant response rating (sugar beet; [11]) | Barnyardgrass plant response rating (bamyardgrass; [1]) | Barnyardgrass plant response rating (bamyardgrass; [2]) | Barnyardgrass plant response rating (bamyardgrass; [3]) | Barnyardgrass plant response rating (bamyardgrass; [4]) | Blackgrass plant response rating (blackgrass; [5]) | Blackgrass plant response rating (blackgrass; [6]) | Blackgrass plant response rating (blackgrass; [7]) | Blackgrass plant response rating (blackgrass; [8]) | Blackgrass plant response rating (blackgrass; [9]) | Blackgrass plant response rating (blackgrass; [10]) | Blackgrass plant response rating (blackgrass; [11]) | Plant response rating (0 to 10; 0 is no effect, 10 is complete control), Blackgrass (blackgrass; Rate 250 g/ha, Postemergence) | Giant foxtail plant response rating (giant foxtail; [5]) | Giant foxtail plant response rating (giant foxtail; [6]) | Giant foxtail plant response rating (giant foxtail; [7]) | Giant foxtail plant response rating (giant foxtail; [8]) | Giant foxtail plant response rating (giant foxtail; [9]) | Giant foxtail plant response rating (giant foxtail; [11]) | Plant response rating (0 to 10; 0 is no effect, 10 is complete control), Giant foxtail (giant foxtail; Rate 250 g/ha, Postemergence) | Bedstraw plant response rating (bedstraw; [5]) | Bedstraw plant response rating (bedstraw; [6]) | Bedstraw plant response rating (bedstraw; [7]) | Bedstraw plant response rating (bedstraw; [8]) | Bedstraw plant response rating (bedstraw; [9]) | Bedstraw plant response rating (bedstraw; [10]) | Bedstraw plant response rating (bedstraw; [11]) | Plant response rating (0 to 10; 0 is no effect, 10 is complete control), Bedstraw (bedstraw; Rate 250 g/ha, Postemergence) | Rice plant response rating (rice; [1]) | Rice plant response rating (rice; [2]) | Rice plant response rating (rice; [3]) | Rice plant response rating (rice; [4]) | Crabgrass plant response rating (crabgrass; [5]) | Crabgrass plant response rating (crabgrass; [6]) | Crabgrass plant response rating (crabgrass; [7]) | Crabgrass plant response rating (crabgrass; [8]) | Crabgrass plant response rating (crabgrass; [9]) | Crabgrass plant response rating (crabgrass; [11]) | Plant response rating (0 to 10; 0 is no effect, 10 is complete control), Crabgrass (crabgrass; Rate 250 g/ha, Postemergence) | Velvetleaf plant response rating (velvetleaf; [5]) | Velvetleaf plant response rating (velvetleaf; [6]) | Velvetleaf plant response rating (velvetleaf; [7]) | Velvetleaf plant response rating (velvetleaf; [9]) | Velvetleaf plant response rating (velvetleaf; [11]) | Nutsedge plant response rating (purple nutsedge; [5]) | Nutsedge plant response rating (purple nutsedge; [6]) | Nutsedge plant response rating (purple nutsedge; [7]) | Nutsedge plant response rating (purple nutsedge; [8]) | Nutsedge plant response rating (purple nutsedge; [9]) | Nutsedge plant response rating (purple nutsedge; [11]) | Plant response rating (0 to 10; 0 is no effect, 10 is complete control), Nutsedge (purple nutsedge; Rate 250 g/ha, Postemergence) | Morningglory plant response rating (morningglory; [5]) | Morningglory plant response rating (morningglory; [6]) | Morningglory plant response rating (morningglory; [7]) | Morningglory plant response rating (morningglory; [8]) | Morningglory plant response rating (morningglory; [9]) | Morningglory plant response rating (morningglory; [11]) | Plant response rating (0 to 10; 0 is no effect, 10 is complete control), Morningglory (morningglory; Rate 250 g/ha, Postemergence) | Rape plant response rating (rape; [5]) | Rape plant response rating (rape; [6]) | Rape plant response rating (rape; [7]) | Rape plant response rating (rape; [8]) | Rape plant response rating (rape; [9]) | Rape plant response rating (rape; [11]) | Plant response rating (0 to 10; 0 is no effect, 10 is complete control), Rape (rape; Rate 250 g/ha, Postemergence) | Redroot pigweed plant response rating (pigweed; [5]) | Redroot pigweed plant response rating (pigweed; [6]) | Redroot pigweed plant response rating (pigweed; [7]) | Redroot pigweed plant response rating (pigweed; [8]) | Redroot pigweed plant response rating (pigweed; [9]) | Redroot pigweed plant response rating (pigweed; [11]) | Plant response rating (0 to 10; 0 is no effect, 10 is complete control), Redroot pigweed (pigweed; Rate 250 g/ha, Postemergence)
